{
  "source": "paper PMC7690448",
  "about": "“Generation of a hTERT-Immortalized Human Sertoli Cell Model to Study Transporter Dynamics at the Blood-Testis Barrier” (Pharmaceutics, 2020)",
  "target": "T1, ENT1 (Homo sapiens, UniProt Q99808)",
  "T1 construct": "gene SLC29A1",
  "T1 sequence (Q99808 2-456)": "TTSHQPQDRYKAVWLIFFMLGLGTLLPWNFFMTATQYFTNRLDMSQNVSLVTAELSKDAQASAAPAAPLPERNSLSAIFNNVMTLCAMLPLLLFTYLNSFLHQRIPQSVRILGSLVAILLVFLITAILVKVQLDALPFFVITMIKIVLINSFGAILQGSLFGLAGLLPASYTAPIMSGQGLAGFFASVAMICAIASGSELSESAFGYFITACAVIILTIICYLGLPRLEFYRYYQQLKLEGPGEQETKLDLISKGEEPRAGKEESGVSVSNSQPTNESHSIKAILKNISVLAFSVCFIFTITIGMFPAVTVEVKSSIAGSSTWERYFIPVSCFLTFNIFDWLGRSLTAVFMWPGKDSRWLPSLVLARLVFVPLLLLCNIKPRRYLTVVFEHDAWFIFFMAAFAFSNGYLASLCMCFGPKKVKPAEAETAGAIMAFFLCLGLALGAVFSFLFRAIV",
  "test": "NBMPR-sensitive [3H] uridine uptake in primary human Sertoli cells and hT-SerCs (endogenous ENT1)",
  "assay_type": "cell-based",
  "data": [
    {"smiles": "O=c1ccn([C@@H]2O[C@H](CO)[C@@H](O)[C@H]2O)c(=O)[nH]1", "note": "[uridine]", "values": [
      {"measurement": "NBMPR-sensitive [3H] uridine uptake in primary human Sertoli cells and hT-SerCs", "result": "These data suggest that uridine uptake into both cells is primarily mediated by ENT1 with minimal contribution by ENT2."}
    ]}
  ]
}
